# Test results: the NIST ThermoML archive (doi:10.1021/je1002434)
# Numbers after ± are expanded uncertainties.
# Experiments:
# [1] = wn = mass fraction of the nth substance listed; settings: for surface tension liquid-gas: Maximal bubble pressure; for mass density: 101 kPa, Liquid, Buoyancy - hydrostatic balance with magnetic suspension - one sinker
# [2] = for surface tension liquid-gas: Maximal bubble pressure; for mass density: 101 kPa, Liquid, Buoyancy - hydrostatic balance with magnetic suspension - one sinker
compound,measurement,setting,value
CCCn1cc[n+](C)c1.N[C@@H](CCC(=O)O)C(=O)[O-] + O,surface tension liquid-gas,"[1]; 318.15 K, w2 = 0.0089",55.2 ± 0.5 mN/m
same,surface tension liquid-gas,"[1]; 318.15 K, w2 = 0.012",55.4 ± 0.5 mN/m
same,surface tension liquid-gas,"[1]; 318.15 K, w2 = 0.0151",55.5 ± 0.5 mN/m
same,surface tension liquid-gas,"[1]; 318.15 K, w2 = 0.0192",55.7 ± 0.5 mN/m
same,surface tension liquid-gas,"[1]; 318.15 K, w2 = 0.0222",56 ± 0.5 mN/m
same,mass density,"[1]; 318.15 K, w2 = 0.00841",1204.8 ± 0.6 kg/m3
same,mass density,"[1]; 318.15 K, w2 = 0.01002",1202 ± 0.5 kg/m3
same,mass density,"[1]; 318.15 K, w2 = 0.01126",1200.3 ± 0.5 kg/m3
same,mass density,"[1]; 318.15 K, w2 = 0.01281",1197.4 ± 0.5 kg/m3
same,mass density,"[1]; 318.15 K, w2 = 0.01404",1195.6 ± 0.5 kg/m3
same,surface tension liquid-gas,"[1]; 323.15 K, w2 = 0.0089",53.8 ± 0.5 mN/m
same,surface tension liquid-gas,"[1]; 323.15 K, w2 = 0.012",54 ± 0.5 mN/m
same,surface tension liquid-gas,"[1]; 323.15 K, w2 = 0.0151",54.2 ± 0.5 mN/m
same,surface tension liquid-gas,"[1]; 323.15 K, w2 = 0.0192",54.4 ± 0.5 mN/m
same,surface tension liquid-gas,"[1]; 323.15 K, w2 = 0.0222",54.7 ± 0.5 mN/m
same,mass density,"[1]; 323.15 K, w2 = 0.00841",1202.2 ± 0.5 kg/m3
same,mass density,"[1]; 323.15 K, w2 = 0.01002",1199.3 ± 0.5 kg/m3
same,mass density,"[1]; 323.15 K, w2 = 0.01126",1197.6 ± 0.5 kg/m3
same,mass density,"[1]; 323.15 K, w2 = 0.01281",1194.7 ± 0.5 kg/m3
same,mass density,"[1]; 323.15 K, w2 = 0.01404",1193 ± 0.5 kg/m3
same,surface tension liquid-gas,"[1]; 328.15 K, w2 = 0.0089",52.5 ± 0.5 mN/m
same,surface tension liquid-gas,"[1]; 328.15 K, w2 = 0.012",52.6 ± 0.5 mN/m
same,surface tension liquid-gas,"[1]; 328.15 K, w2 = 0.0151",52.8 ± 0.5 mN/m
same,surface tension liquid-gas,"[1]; 328.15 K, w2 = 0.0192",53.1 ± 0.5 mN/m
same,surface tension liquid-gas,"[1]; 328.15 K, w2 = 0.0222",53.4 ± 0.5 mN/m
same,mass density,"[1]; 328.15 K, w2 = 0.00841",1199.5 ± 0.5 kg/m3
same,mass density,"[1]; 328.15 K, w2 = 0.01002",1196.7 ± 0.5 kg/m3
same,mass density,"[1]; 328.15 K, w2 = 0.01126",1195 ± 0.5 kg/m3
same,mass density,"[1]; 328.15 K, w2 = 0.01281",1192 ± 0.5 kg/m3
same,mass density,"[1]; 328.15 K, w2 = 0.01404",1190.4 ± 0.5 kg/m3
same,surface tension liquid-gas,"[1]; 333.15 K, w2 = 0.0089",50.7 ± 0.5 mN/m
same,surface tension liquid-gas,"[1]; 333.15 K, w2 = 0.012",51.2 ± 0.5 mN/m
same,surface tension liquid-gas,"[1]; 333.15 K, w2 = 0.0151",51.4 ± 0.5 mN/m
same,surface tension liquid-gas,"[1]; 333.15 K, w2 = 0.0192",51.7 ± 0.5 mN/m
same,surface tension liquid-gas,"[1]; 333.15 K, w2 = 0.0222",51.9 ± 0.5 mN/m
same,mass density,"[1]; 333.15 K, w2 = 0.00841",1196.9 ± 0.5 kg/m3
same,mass density,"[1]; 333.15 K, w2 = 0.01002",1194 ± 0.5 kg/m3
same,mass density,"[1]; 333.15 K, w2 = 0.01126",1192.3 ± 0.5 kg/m3
same,mass density,"[1]; 333.15 K, w2 = 0.01281",1189.4 ± 0.5 kg/m3
same,mass density,"[1]; 333.15 K, w2 = 0.01404",1187.7 ± 0.5 kg/m3
same,surface tension liquid-gas,"[1]; 338.15 K, w2 = 0.0089",49.4 ± 0.5 mN/m
same,surface tension liquid-gas,"[1]; 338.15 K, w2 = 0.012",49.9 ± 0.5 mN/m
same,surface tension liquid-gas,"[1]; 338.15 K, w2 = 0.0151",50.2 ± 0.5 mN/m
same,surface tension liquid-gas,"[1]; 338.15 K, w2 = 0.0192",50.4 ± 0.5 mN/m
same,surface tension liquid-gas,"[1]; 338.15 K, w2 = 0.0222",50.7 ± 0.5 mN/m
same,mass density,"[1]; 338.15 K, w2 = 0.00841",1194.3 ± 0.5 kg/m3
same,mass density,"[1]; 338.15 K, w2 = 0.01002",1191.4 ± 0.5 kg/m3
same,mass density,"[1]; 338.15 K, w2 = 0.01126",1189.6 ± 0.5 kg/m3
same,mass density,"[1]; 338.15 K, w2 = 0.01281",1186.7 ± 0.5 kg/m3
same,mass density,"[1]; 338.15 K, w2 = 0.01404",1185 ± 0.5 kg/m3
same,mass density,"[1]; 343.15 K, w2 = 0.00841",1191.6 ± 0.5 kg/m3
same,mass density,"[1]; 343.15 K, w2 = 0.01002",1188.7 ± 0.5 kg/m3
same,mass density,"[1]; 343.15 K, w2 = 0.01126",1187 ± 0.5 kg/m3
same,mass density,"[1]; 343.15 K, w2 = 0.01281",1184.1 ± 0.5 kg/m3
same,mass density,"[1]; 343.15 K, w2 = 0.01404",1182.4 ± 0.5 kg/m3
CCCn1cc[n+](C)c1.N[C@@H](CCC(=O)O)C(=O)[O-],surface tension liquid-gas,[2]; 298.15 K,60.8 ± 0.5 mN/m
same,mass density,[2]; 298.15 K,1229.2 ± 0.6 kg/m3
same,surface tension liquid-gas,[2]; 318.15 K,54.7 ± 0.4 mN/m
same,mass density,[2]; 318.15 K,1218.6 ± 0.6 kg/m3
same,surface tension liquid-gas,[2]; 323.15 K,53.2 ± 0.4 mN/m
same,mass density,[2]; 323.15 K,1215.9 ± 0.6 kg/m3
same,surface tension liquid-gas,[2]; 328.15 K,51.8 ± 0.4 mN/m
same,mass density,[2]; 328.15 K,1213.2 ± 0.6 kg/m3
same,surface tension liquid-gas,[2]; 333.15 K,50.1 ± 0.4 mN/m
same,mass density,[2]; 333.15 K,1210.6 ± 0.6 kg/m3
same,surface tension liquid-gas,[2]; 338.15 K,48.7 ± 0.4 mN/m
same,mass density,[2]; 338.15 K,1208.2 ± 0.6 kg/m3
same,mass density,[2]; 343.15 K,1205.3 ± 0.6 kg/m3
